PubChem BioAssay AID1963856 (Molecular Pharmacology Branch, DTP, NCI, 2024)

System: LG0567-F671-PDC KRAS tumor spheroid viability
Test: Anticancer human tumor LG0567-F671-PDC patient-derived lung adenocarcinoma cell line growth inhibition [KRAS2]
Settings: spheroids with HUVEC and MSC; for IC50: curve of first compound; for viability, T/C: stronger effect = lower value
Description: Multicellular complex tumor spheroid response to RAS pathway inhibitors in combination with a targeted agents in patient-derived cell lines with oncogenic KRAS variants from multiple cancer types
A high-throughput screen of multi-cell type tumor spheroids was designed to identify active combinations of targeted small molecules and KRAS pathway inhibitors. Complex spheroids include a stromal component modeled by human endothelial cells (HUVEC) and fibroblasts modeled by human mesenchymal stem cells (MSCs). The concentration ranges selected for each drug and investigational agent were based upon clinically achievable concentrations if the clinical Cmax of the agent was known.
Compounds. The drugs and investigational agents: BI-3406 (NSC825286), BAY-293 (NSC824723), batoprotafib (TNO155; NSC825523), sotorasib (AMG 510; NSC818433), MRTX1257 (NSC819558), elimusertib (BAY 1895344; NSC800525), molibresib (GSK525762; NSC774829), temuterkib (LY3214996; NSC803410), venetoclax (NSC766270), alisertib (NSC759677), olaparib (NSC753686), talazoparib (NSC767125), erdafitinib (NSC781556), ipatasertib (NSC767898), cabozantinib (NSC761068), nintedanib (NSC756659), abemaciclib (NSC768073), docetaxel (NSC628503), trametinib (NSC758246), and sapanisertib (NSC764658) were obtained from the National Cancer Institute (NCI) Developmental Therapeutics Program Chemical Repository. The FDA-approved anticancer drug set is available from the Developmental Therapeutics Program. […] The stock solutions were prepared in dimethyl sulfoxide (DMSO, Sigma-Aldrich, St. Louis, MO, cat. D2650) at 800-fold the tested concentration and stored at -70 degrees C prior to their use. All drugs and investigational agents were tested over a range starting from a high concentration at or near the clinical Cmax and decreasing in half-log increments. If the clinical Cmax for an agent had not been determined, the highest concentration tested was 10 microM.
Cell Culture. All cells were maintained in an incubator at 37 degrees C and 5% CO2 with 95% humidity. The PDC lines were cultured according to standard operating procedures established by the NCI PDMR (https://pdmr.cancer.gov/sops/default.htm). Briefly, all PDCs were thawed and cultured in Matrigel-coated flasks prepared with a working solution of 1X Ham's F-12 nutrient mix, without supplementation (Invitrogen, Waltham, MA, cat. 11765054), 100 U/mL penicillin-streptomycin (Invitrogen, cat. 15140122), and 2.5% Matrigel (Corning Inc., Corning, NY, cat. 354248) for the first three passages. All PDCs were cultured in complete DMEM/F-12 media containing advanced DMEM/F-12 (Invitrogen, cat. 12634028), 4.9% defined fetal bovine serum, heat inactivated (HyClone Laboratories Inc., Logan, UT, cat. SH30070.03HI), 389 ng/mL hydrocortisone (Sigma-Aldrich, cat. H4001), 9.7 ng/mL human EGF recombinant protein (Invitrogen, cat. PHG0313), 23.4 microg/mL adenine (Sigma-Aldrich, cat. A2786), 97.3 U/mL penicillin-streptomycin (Invitrogen, cat. 15140122), 1.9 mM L-glutamine (Invitrogen, cat. 25030081), and 9.7 microM Y-27632 dihydrochloride (Tocris Bioscience, Bristol, United Kingdom, cat. 1254). The PDCs were cultured in complete DMEM/F12 media without 9.7 microM Y-27632 dihydrochloride for at least two passages prior to the screen. The established cell line HOP-62 was cultured in RPMI 1640 medium, HEPES (Invitrogen, cat. 22400105) with 10% defined fetal bovine serum (HyClone Laboratories Inc., cat. SH30070.03) and 2 mM L-glutamine (Invitrogen, cat. 25030081). The pooled donor HUVEC were cultured in endothelial cell growth medium 2 (PromoCell, Heidelberg, Germany, cat. C-22011) and the hMSC were cultured in mesenchymal stem cell growth medium 2 (PromoCell, cat. C-28009). For all experiments, HUVEC and hMSC were used at passages </=5, while the malignant cell lines were used at passages </=15. […]

[1] = second compound 0.1 µM, first compound 0.0316 µM
[2] = second compound 0.1 µM, first compound 0.1 µM
[3] = second compound 0.1 µM, first compound 0.316 µM
[4] = second compound 0.1 µM, first compound 1 µM
[5] = second compound 0.316 µM, first compound 0.0316 µM
[6] = second compound 0.316 µM, first compound 0.1 µM
[7] = second compound 0.316 µM, first compound 0.316 µM
[8] = second compound 0.316 µM, first compound 1 µM
[9] = second compound 1 µM, first compound 0.0316 µM
[10] = second compound 1 µM, first compound 0.1 µM
[11] = second compound 1 µM, first compound 0.316 µM
[12] = second compound 1 µM, first compound 1 µM
[13] = second compound 3.16 µM, first compound 0.0316 µM
[14] = second compound 3.16 µM, first compound 0.1 µM
[15] = second compound 3.16 µM, first compound 0.316 µM
[16] = second compound 3.16 µM, first compound 1 µM
[17] = second compound 10 µM, first compound 0.0316 µM
[18] = second compound 10 µM, first compound 0.1 µM
[19] = second compound 10 µM, first compound 0.316 µM
[20] = second compound 10 µM, first compound 1 µM
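Further: drug exposure lasted seven days after spheroids formed for three days.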
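Wherever viability, T/C is given: 100% = DMSO vehicle control viability.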

Structure (SMILES)	IC50 (second compound 0.1 µM)	IC50 (second compound 0.316 µM)	IC50 (second compound 1 µM)	IC50 (second compound 3.16 µM)	IC50 (second compound 10 µM)	viability, T/C [1]	viability, T/C [2]	viability, T/C [3]	viability, T/C [4]	viability, T/C [5]	viability, T/C [6]	viability, T/C [7]	viability, T/C [8]	viability, T/C [9]	viability, T/C [10]	viability, T/C [11]	viability, T/C [12]	viability, T/C [13]	viability, T/C [14]	viability, T/C [15]	also measured
CCN1CCN(Cc2ccc(Nc3ncc(F)c(-c4cc(F)c5nc(C)n(C(C)C)c5c4)n3)nc2)CC1 + CC1OCC2(CCN(c3cnc(Sc4ccnc(N)c4Cl)c(N)n3)CC2)C1N	6.46 nM	< 3.16 nM	< 3.16 nM	< 3.16 nM	< 3.16 nM	41.1%	41.2%	39.9%	39.1%	27.7%	25.5%	23%	24.2%	20.7%	17.7%	16.5%	20.5%	16.1%	10.6%	10.9%	viability, T/C (second compound 0.1 µM, first compound 0.00316 µM): 54.8%; viability, T/C (second compound 0.1 µM, first compound 0.01 µM): 48.2%; viability, T/C (second compound 0.316 µM, first compound 0.00316 µM): 35.5%; viability, T/C (second compound 0.316 µM, first compound 0.01 µM): 30.2%; viability, T/C (second compound 1 µM, first compound 0.00316 µM): 26%; viability, T/C (second compound 1 µM, first compound 0.01 µM): 23.1%; viability, T/C (second compound 3.16 µM, first compound 0.00316 µM): 15.2%; viability, T/C (second compound 3.16 µM, first compound 0.01 µM): 16.7%; viability, T/C [16]: 14.9%; viability, T/C (second compound 10 µM, first compound 0.00316 µM): 10.4%; viability, T/C (second compound 10 µM, first compound 0.01 µM): 7.73%; viability, T/C [17]: 6.15%; viability, T/C [18]: 6.13%; viability, T/C [19]: 7.13%; viability, T/C [20]: 15.3%
O=C(c1cc(Cc2n[nH]c(=O)c3ccccc23)ccc1F)N1CCN(C(=O)C2CC2)CC1 + COc1cc2nc(C)nc(NC(C)c3cc(N)cc(C(F)(F)F)c3)c2cc1OC1CCOC1	> 10000 nM	> 10000 nM	> 10000 nM	> 10000 nM	> 10000 nM	84.3%	108%	81.8%	109%	68.5%	58.5%	67.8%	64%	102%	117%	98%	94.1%	69.3%	68.7%	72.8%	viability, T/C (second compound 0.1 µM, first compound 3.16 µM): 96.8%; viability, T/C (second compound 0.1 µM, first compound 10 µM): 70.3%; viability, T/C (second compound 0.316 µM, first compound 3.16 µM): 57.4%; viability, T/C (second compound 0.316 µM, first compound 10 µM): 70.5%; viability, T/C (second compound 1 µM, first compound 3.16 µM): 95%; viability, T/C (second compound 1 µM, first compound 10 µM): 81.5%; viability, T/C [16]: 63%; viability, T/C (second compound 3.16 µM, first compound 3.16 µM): 68.8%; viability, T/C (second compound 3.16 µM, first compound 10 µM): 61.5%; viability, T/C [17]: 78.7%; viability, T/C [18]: 63.2%; viability, T/C [19]: 68%; viability, T/C [20]: 63.2%; viability, T/C (second compound 10 µM, first compound 3.16 µM): 53.1%; viability, T/C (second compound 10 µM, first compound 10 µM): 56.1%
